Earlier results as cited in patent US20100215763A1, “Method of using the body's alternative cellular energy pigments (ACE-pigments) in the therapy of diseases” (priority 2009, published 2010).

Test system: HSV and HZV skin lesions

Compound: Cc1cc2nc3ccc(N(C)C)cc3nc2cc1N.Cl [neutral red]
- healing of treated HSV and HZV skin lesions (neutral red applied to active lesions followed by UV illumination): expedited healing
- healing of distant HSV lesions (patients with lesions at more than one location, neutral red and UV limited to a single lesion): expedited healing in all lesions
